Measurements: patent publication US9040518B2, “Chemical compounds” (GlaxoSmithKline LLC, priority 2010, dated 2015)
Counter-ions that a name gives are not always drawn.

What follows are compounds tested against ileal bile acid cotransporter (iBAT) (Homo sapiens (Human), UniProt Q12908) (assay: Human iBAT inhibition: [3H]-taurocholate uptake into HEK293 cells expressing human iBAT). Details: HEK293 cells transduced with human iBAT Bacmam virus, 90 minutes at ambient temperature, mean of at least 2 datapoints.
Format: cell-based
Method: Method for Determination of Human iBAT Inhibition:
In preparation for measurement of bile acid uptake into cells expressing the ileal bile acid cotransporter (iBAT), HEK293 cells were cultured in DMEM/F12 supplemented with 10% FBS. Twenty four hours prior to running an experiment, cells were harvested when at a confluence of 80-90%. Cells were seeded in poly-d-lysine coated plates at 50,000 cells per well, and human iBAT Bacmam virus was added such that each well contains 3.67×10e6 pfu (73.4pfu/cell). Each assay plate was covered with Breathe Easy Seal and placed in an incubator for 24 hours to allow expression of the transporter.
On the day of the uptake experiment, 10 mM HEPES was added to Hank's Balanced Salt Solution, and the pH was adjusted to 7.4 with TRIS (HBSSH). The assay buffer was prepared by adding […] [^3H]-taurocholate and 10 μM cold taurocholate to room temperature HBSSH. A separate washing buffer was prepared by adding 10 μM cold taurocholate to HBSSH (˜30 ml per assay plate) and placed on ice. Using 100% DMSO, 8 point, 3-fold dilution curves for each test compound was prepared starting at 200 μM. Similarly, an 8 point dose response curve was prepared of the control compound [(3R,5R)-3-butyl-3-ethyl-7,8-bis(methyloxy)-5-phenyl-2,3,4,5-tetrahydro-1,4-benzothiazepine 1,1-dioxide (Brieaddy, L. E. WO9605188, 1996)] starting at 1.8 mM. Drug plates were created by adding 3 μL of each concentration to a v-bottom 96-well plate then diluted 60-fold with 177 μL of assay buffer. Plates were removed from the incubator and allowed to cool to ambient temperature. Media was aspirated, and wells were washed once with 300 μL HBSSH. 50 μL of each dose response curve concentration was added in triplicate by column to the assay plates, reserving column 10 for control (assay buffer+1.67% DMSO) and columns 11 and 12 for the control compound. Plates were incubated at ambient temperature for 90 minutes then the plates were aspirated then washed 1× with 300 μL of wash buffer. 220 μL of Microscint 20 was added to each well, and the plates were sealed. The amount of [^3H]-taurocholate in cell lysate was quantitated using a microplate scintillation counter on the following day.
IC50's can be generated using the formula, y=(Vmax*x^n)/(K^n+x^n).

ileal bile acid cotransporter (iBAT), sequence (Q12908 whole entry): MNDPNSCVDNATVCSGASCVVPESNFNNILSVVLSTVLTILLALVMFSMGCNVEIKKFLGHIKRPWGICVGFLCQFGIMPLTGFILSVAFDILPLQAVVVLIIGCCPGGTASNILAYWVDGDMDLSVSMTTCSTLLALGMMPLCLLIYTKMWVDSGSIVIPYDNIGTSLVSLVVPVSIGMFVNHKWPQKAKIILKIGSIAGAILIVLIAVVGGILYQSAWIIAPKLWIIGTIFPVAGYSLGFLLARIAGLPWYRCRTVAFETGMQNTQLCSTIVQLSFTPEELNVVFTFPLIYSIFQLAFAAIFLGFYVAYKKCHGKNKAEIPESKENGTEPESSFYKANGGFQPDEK

| Compound | IC50 |
| --- | --- |
| CCCC[C@]1(CC)CS(=O)(=O)c2cc(CN[C@@H](CC(=O)O)C(=O)O)c(OC)cc2[C@@H](c2ccccc2)N1 [Example 27, N-{[(3R,5R)-3-butyl-3-ethyl-7-(methyloxy)-1,1-dioxido-5-phenyl-2,3,4,5-tetrahydro-1,4-benzothiazepin-8-yl]methyl}-L-aspartic acid trifluoroacetate salt] | 47 nM |
| CCCC[C@]1(CC)CS(=O)(=O)c2cc(CN[C@H](CC(=O)O)C(=O)O)c(OC)cc2[C@@H](c2ccccc2)N1 [Example 28, N-{[(3R,5R)-3-butyl-3-ethyl-7-(methyloxy)-1,1-dioxido-5-phenyl-2,3,4,5-tetrahydro-1,4-benzothiazepin-8-yl]methyl}-D-aspartic acid trifluoroacetate salt] | 55 nM |
| CCCC[C@]1(CC)CS(=O)(=O)c2cc(CN(C)CCC(=O)O)c(OC)cc2[C@@H](c2ccccc2)N1 [Example 29, N-{[(3R,5R)-3-butyl-3-ethyl-7-(methyloxy)-1,1-dioxido-5-phenyl-2,3,4,5-tetrahydro-1,4-benzothiazepin-8-yl]methyl}-N-methyl-β-alanine trifluoroacetate salt] | 367 nM |
| CCCC[C@]1(CC)CS(=O)(=O)c2cc(CNCCCC(=O)O)c(OC)cc2[C@@H](c2ccccc2)N1 [Example 30, 4-({[(3R,5R)-3-butyl-3-ethyl-7-(methyloxy)-1,1-dioxido-5-phenyl-2,3,4,5-tetrahydro-1,4-benzothiazepin-8-yl]methyl}amino)butanoic acid trifluoroacetate salt] | 1290 nM |
| CCCC[C@]1(CC)CS(=O)(=O)c2cc(CN3CCCC3=O)c(OC)cc2[C@@H](c2ccccc2)N1 [Example 31, 1-{[(3R,5R)-3-butyl-3-ethyl-7-(methyloxy)-1,1-dioxido-5-phenyl-2,3,4,5-tetrahydro-1,4-benzothiazepin-8-yl]methyl}-2-pyrrolidinone trifluoroacetate salt] | 407 nM |
| CCCC[C@]1(CC)CS(=O)(=O)c2cc(CNC(C)(C)C(=O)O)c(OC)cc2[C@@H](c2ccccc2)N1 [Example 32, N-{[(3R,5R)-3-butyl-3-ethyl-7-(methyloxy)-1,1-dioxido-5-phenyl-2,3,4,5-tetrahydro-1,4-benzothiazepin-8-yl]methyl}-2-methylalanine trifluoroacetate salt] | 190 nM |
| CCCC[C@]1(CC)CS(=O)(=O)c2cc(CNCCP(=O)(O)O)c(OC)cc2[C@@H](c2ccccc2)N1 [Example 33, [2-({[(3R,5R)-3-butyl-3-ethyl-7-(methyloxy)-1,1-dioxido-5-phenyl-2,3,4,5-tetrahydro-1,4-benzothiazepin-8-yl]methyl}amino)ethyl]phosphonic acid trifluoroacetate salt] | 2700 nM |
| CCCC[C@]1(CC)CS(=O)(=O)c2cc(CNCCP(=O)(O)OCC)c(OC)cc2[C@@H](c2ccccc2)N1 [Example 34, ethyl hydrogen [2-({[(3R,5R)-3-butyl-3-ethyl-7-(methyloxy)-1,1-dioxido-5-phenyl-2,3,4,5-tetrahydro-1,4-benzothiazepin-8-yl]methyl}amino)ethyl]phosphonate trifluoroacetate salt] | 2790 nM |
| CCCC[C@]1(CC)CS(=O)(=O)c2cc(CP(=O)(O)O)c(OC)cc2[C@H](c2ccccc2)N1 [Example 45, {[(3R,5S)-3-butyl-3-ethyl-7-(methyloxy)-1,1-dioxido-5-phenyl-2,3,4,5-tetrahydro-1,4-benzothiazepin-8-yl]methyl}phosphonic acid trifluoroacetate salt] | 1950 nM |
| CCCC[C@]1(CC)CS(=O)(=O)c2cc(CN(O)CC(=O)O)c(OC)cc2[C@@H](c2ccccc2)N1 [Example 48, N-{[(3R,5R)-3-butyl-3-ethyl-7-(methyloxy)-1,1-dioxido-5-phenyl-2,3,4,5-tetrahydro-1,4-benzothiazepin-8-yl]methyl}-N-hydroxyglycine] | 17 nM |

Continued by falling IC50, values first:

| IC50 | Compound |
| --- | --- |
| 7680 nM | CCCC[C@]1(CC)CS(=O)(=O)c2cc(CNC(CC(=O)O)CC(=O)O)c(OC)cc2[C@H](c2ccccc2)N1 [Example 43, 3-({[(3R,5S)-3-butyl-3-ethyl-7-(methyloxy)-1,1-dioxido-5-phenyl-2,3,4,5-tetrahydro-1,4-benzothiazepin-8-yl]methyl}amino)pentanedioic acid] |
| 4670 nM | CCCC[C@]1(CC)CS(=O)(=O)c2cc(CNC(=O)CNCCP(=O)(O)O)c(OC)cc2[C@@H](c2ccccc2)N1 [Example 40, (2-{[2-({[(3R,5R)-3-butyl-3-ethyl-7-(methyloxy)-1,1-dioxido-5-phenyl-2,3,4,5-tetrahydro-1,4-benzothiazepin-8-yl]methyl}amino)-2-oxoethyl]amino}ethyl)phosphonic acid trifluoroacetate salt] |
| 3330 nM | CCCC[C@]1(CC)CS(=O)(=O)c2cc(CNC(=O)CNC(CC(=O)O)CC(=O)O)c(OC)cc2[C@@H](c2ccccc2)N1 [Example 41, 3-{[2-({[(3R,5R)-3-butyl-3-ethyl-7-(methyloxy)-1,1-dioxido-5-phenyl-2,3,4,5-tetrahydro-1,4-benzothiazepin-8-yl]methyl}amino)-2-oxoethyl]amino}pentanedioic acid trifluoroacetate salt] |
| 648 nM | CCCC[C@]1(CC)CS(=O)(=O)c2cc(CNCC(=O)O)c(OC)cc2[C@H](c2ccccc2)N1 [Example 44, N-{[(3R,5S)-3-butyl-3-ethyl-7-(methyloxy)-1,1-dioxido-5-phenyl-2,3,4,5-tetrahydro-1,4-benzothiazepin-8-yl]methyl}glycine trifluoroacetate salt] |
| 619 nM | CCCC[C@]1(CC)CS(=O)(=O)c2cc(CNC(=O)CNCC(=O)O)c(OC)cc2[C@@H](c2ccccc2)N1 [Example 39, N-[2-({[(3R,5R)-3-butyl-3-ethyl-7-(methyloxy)-1,1-dioxido-5-phenyl-2,3,4,5-tetrahydro-1,4-benzothiazepin-8-yl]methyl}amino)-2-oxoethyl]glycine trifluoroacetate salt] |
| 365 nM | CCCC[C@]1(CC)CS(=O)(=O)c2cc(CN(CCS(=O)(=O)O)CCS(=O)(=O)O)c(OC)cc2[C@@H](c2ccccc2)N1 [Example 36, 2,2′-({[(3R,5R)-3-butyl-3-ethyl-7-(methyloxy)-1,1-dioxido-5-phenyl-2,3,4,5-tetrahydro-1,4-benzothiazepin-8-yl]methyl}imino)diethanesulfonic acid trifluoroacetate salt] |
| 249 nM | CCCC[C@]1(CC)CS(=O)(=O)c2cc(CNC(=O)CP(=O)(O)O)c(OC)cc2[C@@H](c2ccccc2)N1 [Example 38, [2-({[(3R,5R)-3-butyl-3-ethyl-7-(methyloxy)-1,1-dioxido-5-phenyl-2,3,4,5-tetrahydro-1,4-benzothiazepin-8-yl]methyl}amino)-2-oxoethyl]phosphonic acid trifluoroacetate salt] |
| 128 nM | CCCC[C@]1(CC)CS(=O)(=O)c2cc(CNC(=O)CCS(=O)(=O)O)c(OC)cc2[C@@H](c2ccccc2)N1 [Example 42, 3-({[(3R,5R)-3-butyl-3-ethyl-7-(methyloxy)-1,1-dioxido-5-phenyl-2,3,4,5-tetrahydro-1,4-benzothiazepin-8-yl]methyl}amino)-3-oxo-1-propanesulfonic] |
| 54 nM | CCCC[C@]1(CC)CS(=O)(=O)c2cc(CNCCS(=O)(=O)O)c(OC)cc2[C@@H](c2ccccc2)N1 [Example 35, 2-({[(3R,5R)-3-butyl-3-ethyl-7-(methyloxy)-1,1-dioxido-5-phenyl-2,3,4,5-tetrahydro-1,4-benzothiazepin-8-yl]methyl}amino)ethanesulfonic acid ammonium salt] |
| 43 nM | CCCC[C@]1(CC)CS(=O)(=O)c2cc(CNC(CC(=O)O)CC(=O)O)c(OC)cc2[C@@H](c2ccccc2)N1 [Example 26, 3-({[(3R,5R)-3-butyl-3-ethyl-7-(methyloxy)-1,1-dioxido-5-phenyl-2,3,4,5-tetrahydro-1,4-benzothiazepin-8-yl]methyl}amino)pentanedioic acid] |
| 9 nM | CCCC[C@]1(CC)CS(=O)(=O)c2cc(CNC(=O)CS(=O)(=O)O)c(OC)cc2[C@@H](c2ccccc2)N1 [Example 37, 2-({[(3R,5R)-3-butyl-3-ethyl-7-(methyloxy)-1,1-dioxido-5-phenyl-2,3,4,5-tetrahydro-1,4-benzothiazepin-8-yl]methyl}amino)-2-oxoethanesulfonic acid] |
| 2 nM | CCCC[C@]1(CC)CS(=O)(=O)c2cc(CNCC(=O)O)c(OC)cc2[C@@H](c2ccccc2)N1O [Example 46, N-{[(3R,5R)-3-butyl-3-ethyl-4-hydroxy-7-(methyloxy)-1,1-dioxido-5-phenyl-2,3,4,5-tetrahydro-1,4-benzothiazepin-8-yl]methyl}glycine] |
